In patent publication US10787695B2, “Systems and methods for rapidly sensing microbial metabolism” (General Electric Company, priority 2017, dated 2020):

Test system: bacteria
Test: bacteria growth within chambers of a bacteria culture array with or without ampicillin (FIG. 33)
Assay type: cell-based
Conditions: chambers that included ampicillin vs chambers without ampicillin; FIG. 33, graph 168
Description: Furthermore, the bacteria culture arrays of the present disclosure may be used to assess the effect of drugs on bacteria samples. For instance, single cells of bacteria may be added the chambers of a bacteria culture array, and drugs and/or antimicrobial agents may be added to some or all of the chambers. In other words, single cell bacteria activity may be used to conduct population-based analysis of bacteria samples. With this in mind, FIG. 33 is a graph 168 showing bacteria growth within chambers of a bacteria culture array.
Visual confirmation of the results shown in the graph 168 were also obtained. FIG. 34 is images […] of the chambers of the bacteria culture array.

With `CC1(C)S[C@@H]2[C@H](NC(=O)[C@H](N)c3ccccc3)C(=O)N2[C@H]1C(=O)O` [ampicillin] the “bacteria growth within chambers of a bacteria culture array” value was “hindrance to growth”.
